Here are results for 13 molecules from the kinase profiling compilation of Christmann-Franck et al. (2016).

Test in all cases: KINOMEscan competition binding
What all share (conditions): compound 10.0 µM

Assay [1] has as its system EGFR (human), P00533 [A750P; 747-749 del].
The test system of assay [2] is ABL1 (human), P00519 [F317L].
Assay [3] concerns FLT3 (human), P36888 [D835Y].
For assay [4], the system named is FGFR3 (human), P22607 [G697C].
The subject of assay [5] is RET (human), P07949 [V804L].
Assay [6] concerns BMX (human), P51813 [V600E].
Chain of BMX (human), P51813 [V600E] (P51813 whole entry, looked up, stated change not applied): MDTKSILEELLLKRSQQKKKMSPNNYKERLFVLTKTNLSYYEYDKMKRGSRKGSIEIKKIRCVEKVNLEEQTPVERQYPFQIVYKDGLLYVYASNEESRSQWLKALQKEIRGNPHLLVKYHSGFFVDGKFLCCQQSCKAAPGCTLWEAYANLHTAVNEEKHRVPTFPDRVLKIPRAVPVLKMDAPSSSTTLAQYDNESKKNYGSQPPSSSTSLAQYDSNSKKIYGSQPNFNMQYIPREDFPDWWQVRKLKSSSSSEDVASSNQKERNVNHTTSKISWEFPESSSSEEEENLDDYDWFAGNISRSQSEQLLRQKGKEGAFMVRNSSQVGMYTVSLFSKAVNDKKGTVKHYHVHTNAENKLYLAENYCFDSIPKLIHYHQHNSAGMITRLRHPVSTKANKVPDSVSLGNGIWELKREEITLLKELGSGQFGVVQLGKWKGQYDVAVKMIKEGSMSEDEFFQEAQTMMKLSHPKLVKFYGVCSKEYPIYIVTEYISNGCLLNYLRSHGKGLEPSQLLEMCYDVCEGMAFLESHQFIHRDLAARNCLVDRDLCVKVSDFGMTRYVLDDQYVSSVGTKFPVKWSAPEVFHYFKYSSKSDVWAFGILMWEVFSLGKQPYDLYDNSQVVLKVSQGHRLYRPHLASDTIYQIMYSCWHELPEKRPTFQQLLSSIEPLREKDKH
In assay [7] the test system is EGFR (human), P00533 [G719C].
Assay [8] has as its system ABL1 (human), P00519 [F317I].
The test system of assay [9] is EGFR (human), P00533 [L858R].
In assay [10] the test system is PIK3CA (human), P42336 [H1047L].
Chain of PIK3CA (human), P42336 [H1047L] (P42336 whole entry H1047L, looked up): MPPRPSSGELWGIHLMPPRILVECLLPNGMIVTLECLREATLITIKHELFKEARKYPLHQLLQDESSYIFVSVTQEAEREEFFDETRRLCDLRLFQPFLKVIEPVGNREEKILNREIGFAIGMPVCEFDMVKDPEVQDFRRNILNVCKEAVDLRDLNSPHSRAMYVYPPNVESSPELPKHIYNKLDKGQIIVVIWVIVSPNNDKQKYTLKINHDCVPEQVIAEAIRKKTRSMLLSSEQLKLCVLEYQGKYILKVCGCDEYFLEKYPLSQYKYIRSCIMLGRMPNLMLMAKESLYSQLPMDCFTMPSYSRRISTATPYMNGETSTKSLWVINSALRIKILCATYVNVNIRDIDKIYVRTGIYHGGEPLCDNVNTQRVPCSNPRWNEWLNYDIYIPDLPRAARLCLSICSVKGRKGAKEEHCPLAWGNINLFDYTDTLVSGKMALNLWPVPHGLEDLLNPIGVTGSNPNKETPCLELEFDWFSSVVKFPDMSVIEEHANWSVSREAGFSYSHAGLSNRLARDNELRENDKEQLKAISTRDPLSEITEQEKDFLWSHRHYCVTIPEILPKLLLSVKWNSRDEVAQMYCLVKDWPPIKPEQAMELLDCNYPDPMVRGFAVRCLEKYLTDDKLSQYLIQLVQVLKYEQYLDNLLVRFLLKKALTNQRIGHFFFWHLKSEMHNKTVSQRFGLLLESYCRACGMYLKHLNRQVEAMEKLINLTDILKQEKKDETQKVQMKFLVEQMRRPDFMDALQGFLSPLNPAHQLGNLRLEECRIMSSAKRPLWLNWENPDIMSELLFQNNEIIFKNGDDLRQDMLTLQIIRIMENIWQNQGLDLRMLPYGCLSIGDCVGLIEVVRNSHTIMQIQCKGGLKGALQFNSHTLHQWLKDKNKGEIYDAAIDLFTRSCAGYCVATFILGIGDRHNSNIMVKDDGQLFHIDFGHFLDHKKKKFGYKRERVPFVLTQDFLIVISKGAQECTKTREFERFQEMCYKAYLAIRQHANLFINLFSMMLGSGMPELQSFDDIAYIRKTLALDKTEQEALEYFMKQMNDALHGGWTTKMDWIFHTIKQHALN
For assay [11], the system named is PIK3CA (human), P42336 [M1043I].
Chain of PIK3CA (human), P42336 [M1043I] (P42336 whole entry M1043I, looked up): as the sequence (P42336 whole entry H1047L, looked up) above, with M1043I, L1047H counted along it
The test system of assay [12] is PIK3CA (human), P42336 [E542K].
Chain of PIK3CA (human), P42336 [E542K] (P42336 whole entry E542K, looked up): as the sequence (P42336 whole entry H1047L, looked up) above, with E542K, L1047H counted along it
Assay [13] has as its system MET (human), P08581 [M1250T].
Assay [14] concerns LRRK2 (human), Q5S007 [G2019S].

Chain of RET (human), P07949 [V804L] (P07949 whole entry V804L, looked up): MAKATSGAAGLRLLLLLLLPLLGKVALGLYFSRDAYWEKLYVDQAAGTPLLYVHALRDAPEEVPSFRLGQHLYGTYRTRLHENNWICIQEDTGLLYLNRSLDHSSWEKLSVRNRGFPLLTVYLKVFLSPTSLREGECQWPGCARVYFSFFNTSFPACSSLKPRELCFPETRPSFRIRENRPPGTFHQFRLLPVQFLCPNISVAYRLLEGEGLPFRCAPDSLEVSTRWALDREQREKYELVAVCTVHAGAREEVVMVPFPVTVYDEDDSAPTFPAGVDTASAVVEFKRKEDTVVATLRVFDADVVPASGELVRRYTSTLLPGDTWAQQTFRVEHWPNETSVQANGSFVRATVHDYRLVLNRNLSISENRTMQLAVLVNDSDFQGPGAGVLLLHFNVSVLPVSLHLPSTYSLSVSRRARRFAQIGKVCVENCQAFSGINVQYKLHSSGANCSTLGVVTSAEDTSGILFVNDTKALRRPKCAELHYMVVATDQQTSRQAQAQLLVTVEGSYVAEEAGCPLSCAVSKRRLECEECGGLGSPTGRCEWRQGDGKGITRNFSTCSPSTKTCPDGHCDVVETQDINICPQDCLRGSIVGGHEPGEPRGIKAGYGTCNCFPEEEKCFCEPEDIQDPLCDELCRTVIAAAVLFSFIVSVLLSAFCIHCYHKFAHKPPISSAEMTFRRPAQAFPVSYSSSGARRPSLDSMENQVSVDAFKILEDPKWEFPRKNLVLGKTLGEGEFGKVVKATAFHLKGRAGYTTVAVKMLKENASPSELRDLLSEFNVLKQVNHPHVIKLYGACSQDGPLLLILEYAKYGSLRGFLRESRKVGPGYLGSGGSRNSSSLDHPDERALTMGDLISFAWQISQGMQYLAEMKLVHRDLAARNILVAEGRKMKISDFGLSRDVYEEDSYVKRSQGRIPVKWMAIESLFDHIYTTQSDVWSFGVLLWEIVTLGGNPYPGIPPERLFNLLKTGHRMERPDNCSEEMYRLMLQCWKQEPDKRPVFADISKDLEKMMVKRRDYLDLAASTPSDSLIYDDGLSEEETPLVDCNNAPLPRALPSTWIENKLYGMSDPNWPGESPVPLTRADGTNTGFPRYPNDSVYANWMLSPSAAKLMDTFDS
Chain of ABL1 (human), P00519 [F317I] (P00519 whole entry F317I, looked up): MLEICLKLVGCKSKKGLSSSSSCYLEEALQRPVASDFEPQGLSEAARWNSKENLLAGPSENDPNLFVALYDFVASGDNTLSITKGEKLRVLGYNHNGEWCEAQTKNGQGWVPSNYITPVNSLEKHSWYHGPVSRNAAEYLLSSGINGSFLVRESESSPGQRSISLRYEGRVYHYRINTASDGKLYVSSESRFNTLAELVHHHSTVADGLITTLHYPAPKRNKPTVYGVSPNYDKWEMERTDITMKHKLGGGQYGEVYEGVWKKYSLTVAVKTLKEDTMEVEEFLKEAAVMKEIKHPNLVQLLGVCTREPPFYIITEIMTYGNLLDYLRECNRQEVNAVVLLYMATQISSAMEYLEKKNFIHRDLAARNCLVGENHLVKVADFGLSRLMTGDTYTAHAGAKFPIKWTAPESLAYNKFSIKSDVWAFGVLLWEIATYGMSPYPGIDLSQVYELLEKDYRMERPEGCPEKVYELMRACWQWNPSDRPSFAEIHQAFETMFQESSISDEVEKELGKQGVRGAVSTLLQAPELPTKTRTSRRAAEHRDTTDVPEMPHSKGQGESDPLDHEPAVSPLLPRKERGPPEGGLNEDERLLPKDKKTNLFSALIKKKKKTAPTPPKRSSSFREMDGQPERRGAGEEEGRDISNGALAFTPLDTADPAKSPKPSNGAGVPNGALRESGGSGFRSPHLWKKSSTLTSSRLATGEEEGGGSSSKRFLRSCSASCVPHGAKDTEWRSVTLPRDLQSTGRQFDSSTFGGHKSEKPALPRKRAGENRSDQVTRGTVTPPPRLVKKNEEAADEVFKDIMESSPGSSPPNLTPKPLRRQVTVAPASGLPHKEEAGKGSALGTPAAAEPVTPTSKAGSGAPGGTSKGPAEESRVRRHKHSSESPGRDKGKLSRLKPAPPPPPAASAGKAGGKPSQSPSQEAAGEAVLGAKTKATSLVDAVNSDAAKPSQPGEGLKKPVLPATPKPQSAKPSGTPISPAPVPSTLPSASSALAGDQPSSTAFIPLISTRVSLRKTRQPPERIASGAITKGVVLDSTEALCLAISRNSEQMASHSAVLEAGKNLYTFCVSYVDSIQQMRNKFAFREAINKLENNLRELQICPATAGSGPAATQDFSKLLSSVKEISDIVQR
Chain of ABL1 (human), P00519 [F317L] (P00519 whole entry F317L, looked up): as the sequence (P00519 whole entry F317I, looked up) above, with I317L counted along it
Chain of FGFR3 (human), P22607 [G697C] (P22607 whole entry G697C, looked up): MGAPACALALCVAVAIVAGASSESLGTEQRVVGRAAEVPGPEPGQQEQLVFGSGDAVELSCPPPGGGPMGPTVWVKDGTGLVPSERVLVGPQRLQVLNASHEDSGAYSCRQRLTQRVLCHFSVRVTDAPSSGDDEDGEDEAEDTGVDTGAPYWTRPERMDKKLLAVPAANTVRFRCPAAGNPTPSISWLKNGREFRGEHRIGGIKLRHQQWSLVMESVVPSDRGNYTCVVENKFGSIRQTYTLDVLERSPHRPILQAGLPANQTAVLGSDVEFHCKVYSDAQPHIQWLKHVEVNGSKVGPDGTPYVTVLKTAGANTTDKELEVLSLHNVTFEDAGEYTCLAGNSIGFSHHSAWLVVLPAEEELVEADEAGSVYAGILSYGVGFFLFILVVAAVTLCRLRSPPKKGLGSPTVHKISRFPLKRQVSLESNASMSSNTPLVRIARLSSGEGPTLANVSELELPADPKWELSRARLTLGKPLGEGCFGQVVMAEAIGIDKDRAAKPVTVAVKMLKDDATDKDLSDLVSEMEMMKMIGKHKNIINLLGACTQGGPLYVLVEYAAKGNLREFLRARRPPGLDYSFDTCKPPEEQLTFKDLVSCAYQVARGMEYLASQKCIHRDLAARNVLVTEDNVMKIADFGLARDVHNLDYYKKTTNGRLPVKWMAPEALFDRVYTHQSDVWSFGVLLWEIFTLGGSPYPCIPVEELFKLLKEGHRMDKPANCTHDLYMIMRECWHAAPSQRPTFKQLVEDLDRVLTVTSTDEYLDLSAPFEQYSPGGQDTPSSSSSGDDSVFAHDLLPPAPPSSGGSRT

Consider `Cc1ccc(C(=O)Nc2cccc(C(F)(F)F)c2)cc1Nc1cncc(C(N)=O)c1`, for which the kinase still bound, per cent of control turned out to be 100% in [1]; 22% in assay [2]; 100% in [3]; 100% in assay [4]; 100% in assay [5]; 0.15% in [6]. Besides, the kinase still bound, per cent of control is 100% in [7], 13% in [8] and 100% in assay [9].
In the case of `C=CC(=O)Nc1ccc(CN(C(=O)Nc2c(Cl)c(OC)cc(OC)c2Cl)c2cc(Nc3ccc(N4CCN(C)CC4)cc3)ncn2)cc1`, the kinase still bound, per cent of control was found to be 0.55% in assay [1]; 100% in assay [2]; 100% in assay [3]; 1.4% in assay [4]; 100% in assay [5]; 100% in assay [6]. Besides, the kinase still bound, per cent of control in assay [7] was determined as 0.1%; in assay [8] it was 100%; in [9], 0.2%.
As for `COc1cc(C(=O)NC2CCN(C)CC2)ccc1Nc1ncc2c(n1)N(C1CCCC1)CCC(=O)N2C(C)C`, the kinase still bound, per cent of control in [1] worked out at 100%; in assay [2] it was 100%; in assay [3] it was 100%; in assay [4], 100%; in [5], 0%; in [6] it was 100%. Besides, the kinase still bound, per cent of control in assay [10], in assay [11], in [7], in assay [12], in assay [8] and in assay [13] was 100% throughout. In assay [9], this molecule returned a kinase still bound, per cent of control of 100%.
Turning to `Cn1c(=O)n(-c2ccc(C(C)(C)C#N)cc2)c2c3cc(-c4cnc5ccccc5c4)ccc3ncc21`, the kinase still bound, per cent of control is 100% in [1]; 100% in assay [2]; 12% in [3]; 100% in assay [4]; 100% in assay [5]; 100% in assay [6]. Besides, the kinase still bound, per cent of control in assay [10] was 4.8%; in assay [7], 100%; in assay [12] it was 2.8%; in assay [8], 100%; in assay [9] it was 100%.
For the molecule `COc1cc(N2CCN(C)CC2)ccc1Nc1ncc2c(n1)N(C)c1ccccc1C(=O)N2C`, the kinase still bound, per cent of control in assay [1] was 100%; in assay [2] it was 17%; in assay [3], 100%; in [4] it was 100%; in assay [5], 100%; in assay [6], 100%. The kinase still bound, per cent of control in assay [10] worked out at 100%; in assay [11], 100%; in [7], 100%; in assay [12], 100%; in assay [8], 5%; in assay [13], 100%. Moreover, in assay [9], the kinase still bound, per cent of control was determined as 100%.
For `CNC(=O)c1ccc(Nc2cc(Nc3ccccc3S(=O)(=O)C(C)C)c3cc[nH]c3n2)nc1`, the kinase still bound, per cent of control was 100% in assay [1]; 28% in assay [2]; 0.1% in assay [3]; 20% in assay [4]; 0.2% in assay [5]; 100% in [6]. Moreover, the kinase still bound, per cent of control in assay [7] came out at 100%; in assay [8], 30%; in assay [9], 100%.
For the molecule `C=CC(=O)Nc1cccc(Oc2nc(Nc3ccc(N4CCN(C)CC4)cc3OC)ncc2Cl)c1`, the kinase still bound, per cent of control in assay [1] is 0.05%; in [2], 100%; in assay [3], 0.8%; in [4], 100%; in [5] it was 100%; in assay [6] it was 100%. Also, the figures for the kinase still bound, per cent of control in assay [7], in [8] and in [9] were 0.35%, 100% and 0.1%, respectively.
Turning to `COc1cc(C(=O)NC2CCN(C)CC2)ccc1Nc1ncc2c(n1)N(C1CCCC1)C(C)CC(=O)N2C` (centres undefined), the kinase still bound, per cent of control in [1], in assay [2], in assay [3], in assay [4], in assay [5] and in assay [6] was 100% in each case. In addition, the kinase still bound, per cent of control in assay [7], in assay [8] and in assay [9] was 100% in each case.
On to `OCCCNc1cc(-c2ccnc(Nc3cccc(Cl)c3)n2)ccn1`, for which the kinase still bound, per cent of control came out at 100% in assay [1]; 100% in assay [2]; 19% in assay [3]; 100% in assay [4]; 100% in assay [5]; 100% in assay [6]. For the same molecule, the kinase still bound, per cent of control in assay [10], in assay [11], in assay [7], in [12], in [8] and in assay [13] was 100% throughout. The molecule also came in with a kinase still bound, per cent of control in assay [9] of 100%.
For the molecule `CC[C@@H]1C(=O)N(C)c2cnc(Nc3ccc(C(=O)NC4CCN(C)CC4)cc3OC)nc2N1C1CCCC1`, the kinase still bound, per cent of control in [2], in assay [3], in assay [4], in assay [5], in [6] and in assay [8] was 100% in each case.
On to `CCC(=O)N1CCN(c2ccc(-n3c(=O)ccc4cnc5ccc(-c6cnc7ccccc7c6)cc5c43)cc2C(F)(F)F)CC1`, for which the kinase still bound, per cent of control in [14] was found to be 99%; in assay [1] it was 100%; in [2] it was 100%; in assay [3] it was 16%; in [5], 66%; in assay [6] it was 88%. In addition, the kinase still bound, per cent of control in [10] is 2.6%; in assay [11], 8.6%; in assay [12], 1%; in assay [8], 100%; in assay [13], 79%; in [9], 100%.
As to `CS(=O)(=O)N1CCN(Cc2cc3nc(-c4cccc5[nH]ncc45)nc(N4CCOCC4)c3s2)CC1`, the kinase still bound, per cent of control in [1], in assay [2], in [3], in assay [4], in assay [5] and in [6] was 100% in each case. Besides, the kinase still bound, per cent of control in assay [10] is 9.8%; in [11], 19%; in assay [7], 100%; in assay [12], 0.45%; in assay [8] it was 100%; in [13], 100%. In addition, the kinase still bound, per cent of control in assay [9] is 100%.
Turning to `CCN(CC)CCCCNc1ncc2c(n1)N(C)C(=O)N(c1c(Cl)c(OC)cc(OC)c1Cl)C2`, the kinase still bound, per cent of control was 100% in assay [1]; 100% in [2]; 100% in assay [3]; 1.3% in assay [4]; 100% in assay [5]; 100% in assay [6]. Moreover, the kinase still bound, per cent of control in assay [10], in assay [11], in [7], in [12], in assay [8] and in [13] was 100% in each case. Besides, the kinase still bound, per cent of control in assay [9] was 100%.
